This note sets out measurements from patent US20250282724A1, “BENZOTRIAZOLE COMPOUND” (DAIICHI SANKYO COMPANY, LIMITED, priority 2022, published 2025).

The test system of series [1] is NQO1 activity in Hepa1c1c7 cells. Briefly: NAD(P)H: quinone oxidoreductase-1 (NQO1) enzyme induction assay (in vitro). The format is cell-based, mouse. The settings on record: about 48 hr, ratio from the base without the compound; for fold induction at 0.4 µM: Mus musculus, Hepa-1c1c7, 400 nM of test compound; for activity ratio (NQO1 activity ratio): 400 nM of test compound. As for the experimental part:
The NQO1 assay was performed based on a previous report (Methods in Enzymology 2004; 382: 243-258). Hepa1c1c7 cells (mouse hepatocyte cell line, ATCC, cat. no. CRL-2026) were cultured in D-MEM medium containing 10% FBS and 1% penicillin/streptomycin (5% CO2, 37° C.), and seeded into 96-well plates (Corning REF. 353072) at 1×10^4 cells/well. A portion of the wells were prepared with medium only for background measurement without seeding cells. The next day, 400 nM of the test compound (0.004% of the final concentration in DMSO) dissolved in DMSO was added thereto, and the wells were incubated for about 48 hr. A well without adding the test compound was prepared for base activity assay in part.
Cell lysate (solution containing 0.8% digitonin, 2 mM EDTA), reaction solution (solution containing 25 mM Tris-HCl, 0.07% albumin, 0.01% Tween-20, 2 U/mL glucose-6-phosphate dehydrogenase, 5 μM flavin adenine dinucleotide, 1 μM glucose-6-phosphate, […] nicotinamide adenine dinucleotide phosphate, 0.03% 3-(4,5-dimethyl-2-thiazolyl)-2,5-diphenyltetrazolium bromide (MTT), and 50 μM menadione), stop solution (solution containing 0.3 mM dicoumarol and 5 mM potassium dihydrogen phosphate, pH 7.4) were prepared. After the medium was removed, 50 μL of the cell lysate was added and incubated at 37° C. for 10 minutes, followed by shaking at room temperature for 10 minutes. 200 μL of reaction solution was added thereto, and allowed to stand for 5 minutes at room temperature. 50 μL of the stop solution was added thereto, and absorbance was measured at 610 nm on a SpectraMax PLUS384 (Molecular devices) or POWERSCAN HT (DS Pharma Biomedical). The test results were analyzed in Excel, and the NQO1 activity upon addition of 400 nM of test compound was calculated as a ratio from the base without the compound.
The results of each test compound in this test are shown in the following Table 2 (A:5<NQO1 activity ratio, B:3<NQO1 activity ratio≤5).

A short description of series [2]: Measurement test of plasma drug concentration after oral administration in rats. The format is in vivo, rat. The settings on record: 10 mg/2 mL/kg oral, suspended in 0.5% methylcellulose, male SD rats. As for the experimental part:
10 mg/2 mL/kg of the test compound suspended in 0.5% methylcellulose solution were force-fed to Male SD rats (7 weeks old, Japan SLC). Blood was collected from the jugular vein using a syringe with heparin at 0.5, 1, 2, 4, 6, and 24 hr after administration. After blood collection, to 20 μL of centrifuged plasma was added an equal volume of acetonitrile followed by 200 μL of internal standard (IS) solution. After agitation, all the supernatant after centrifugation was filtered, and the collected filtrate was used as the assay sample. Equal volumes of the test compound solution prepared in acetonitrile were added to blank plasma, and the samples processed in the same manner as above were used as samples for the calibration curve. The prepared samples were measured using LC/MS/MS, and the area under the blood concentration-time curve (AUC) was calculated from the compound concentration in plasma.

By fold induction is commonly meant the signal under treatment as a multiple of the control signal. On to `CC[C@@H]1CN(Cc2cc(C(CC(=O)O)c3ccc4c(nnn4C)c3C)cc3c2CCC3)S(=O)(=O)c2ccc(Cl)cc2O1` (stereo partly drawn) [Example 15, 3-(7-{[(4R)-7-Chloro-4-ethyl-1,1-dioxido-3,4-dihydro-2H-5,1,2-benzoxathiazepin-2-yl]methyl}-2,3-dihydro-1H-inden-5-yl)-3-(1,4-dimethyl-1H-benzotriazol-5-yl)propanoic acid], for which the fold induction at 0.4 µM in series [1] was over 5.
In series [2], `CC[C@@H]1CN(Cc2cc([C@@H](CC(=O)O)c3ccc4c(nnn4C)c3C)cc3c2CCC3)S(=O)(=O)c2cc(Cl)cnc2O1` [Example 5, (3R)-3-(7-{[(4R)-8-Chloro-4-ethyl-1,1-dioxido-3,4-dihydro-2H-pyrido[2,3-b][1,4,5]oxathiazepin-2-yl]methyl}-2,3-dihydro-1H-inden-5-yl)-3-(1,4-dimethyl-1H-benzotriazol-5-yl)propanoic acid] displayed a maximam plasma concentration of 0.006 µM.
With `Cc1c([C@H](CC(=O)O)c2cc(CN3C[C@@H](C4CC4)Oc4ccc(O)nc4C3C)c3sccc3c2)cnc2c1nnn2C` (single isomer, unassigned) [Example 85, (3R)-3-(7-{[(2R,5R*)-2-Cyclopropyl-7-hydroxy-5-methyl-2,3-dihydropyrido[2,3-f][1,4]oxazepin-4(5H)-yl]methyl}-1-benzothiophen-5-yl)-3-(3,7-dimethyl-3H-[1,2,3]triazolo[4,5-b]pyridin-6-yl)propanoic acid], in series [1], the “activity ratio (NQO1 activity ratio)” value is given as “A (5<NQO1 activity ratio)”.
In series [2], `CC[C@@H]1CN(Cc2cc([C@@H](CC(=O)O)c3ccc4c(nnn4C)c3C)cc3ccsc23)S(=O)(=O)c2cc(Cl)cnc2O1` [Example 8, (3R)-3-(7-{[(4R)-8-Chloro-4-ethyl-1,1-dioxido-3,4-dihydro-2H-pyrido[2,3-b][1,4,5]oxathiazepin-2-yl]methyl}-1-benzothiophen-5-yl)-3-(1,4-dimethyl-1H-benzotriazol-5-yl)propanoic acid] showed a maximam plasma concentration of 0.005 µM.
For `Cc1c(C(CC(=O)O)c2cc3c(c(CN4CC5(CCC5)Oc5ncccc5S4(=O)=O)c2)CCC3)ccc2c1nnn2C` (centres unmarked) [Example 35, 3-(1,4-Dimethyl-1H-benzotriazol-5-yl)-3-{7-[(1′,1′-dioxido-spiro[cyclobutane-1,4′-pyrido[2,3-b][1,4,5]oxathiazepine]-2′(3′H)-yl)methyl]-2,3-dihydro-1H-inden-5-yl}propanoic acid], the fold induction at 0.4 µM in series [1] was over 5.
For `CC[C@@H]1CN(Cc2cc([C@@H](CC(=O)O)c3ccc4c(nnn4C)c3C)cc3ccsc23)C(C)c2nc(O)ccc2O1` (single isomer, unassigned) [Example 78, (3R)-3-(1,4-Dimethyl-1H-benzotriazol-5-yl)-3-(7-{[(2R,5S*)-2-ethyl-7-hydroxy-5-methyl-2,3-dihydropyrido[2,3-f][1,4]oxazepin-4(5H)-yl]methyl}-1-benzothiophen-5-yl)propanoic acid], the “activity ratio (NQO1 activity ratio)” value in series [1] was “A (5<NQO1 activity ratio)”.
On to `Cc1c(C(CC(=O)O)c2cc3c(c(CN4CC5(COC5)Oc5ncccc5S4(=O)=O)c2)CCC3)ccc2c1nnn2C` (centres unmarked) [Example 36, 3-(1,4-Dimethyl-1H-benzotriazol-5-yl)-3-{7-[(1′,1′-dioxido-spiro[oxetane-3,4′-pyrido[2,3-b][1,4,5]oxathiazepine]-2′ (3′H)-yl)methyl]-2,3-dihydro-1H-inden-5-yl}propanoic acid], for which the fold induction at 0.4 µM in series [1] is over 5.
Consider `Cc1c(C(CC(=O)O)c2cc3c(c(CN4CC5(CCOCC5)Oc5ncccc5S4(=O)=O)c2)CCC3)ccc2c1nnn2C` (centres unmarked) [Example 33, 3-(1,4-Dimethyl-1H-benzotriazol-5-yl)-3-{7-[(1′,1′-dioxido-2,3,5,6-tetrahydrospiro[pyran-4,4′-pyrido[2,3-b][1,4,5]oxathiazepine]-2′ (3′H)-yl)methyl]-2,3-dihydro-1H-inden-5-yl}propanoic acid], for which the fold induction at 0.4 µM in series [1] was over 5.
Consider `CC[C@@H]1CN(Cc2cc([C@H](CC(=O)O)c3ccc4c(nnn4C)c3C)cc3ccsc23)[C@@H](C)c2ncccc2O1` [Example 62, (3S)-3-(1,4-Dimethyl-1H-benzotriazol-5-yl)-3-(7-{[(2R,5S)-2-ethyl-5-methyl-2,3-dihydropyrido[2,3-f][1,4]oxazepin-4(5H)-yl]methyl}-1-benzothiophen-5-yl)propanoic acid], for which the “activity ratio (NQO1 activity ratio)” value in series [1] is “A (5<NQO1 activity ratio)”.
On the same count and under the same terms, the value for `CC[C@@H]1CN(Cc2cc([C@@H](CC(=O)O)c3ccc4c(nnn4C)c3C)cc3c2CCC3)S(=O)(=O)c2cccc(Cl)c2O1` [Example 48, (3R)-3-(7-{[(4R)-6-Chloro-4-ethyl-1,1-dioxido-3,4-dihydro-2H-5,1,2-benzoxathiazepin-2-yl]methyl}-2,3-dihydro-1H-inden-5-yl)-3-(1,4-dimethyl-1H-benzotriazol-5-yl)propanoic acid] was “A (5<NQO1 activity ratio)”.
Consider `CC[C@@H]1CN(Cc2cc([C@H](CC(=O)O)c3ccc4c(nnn4C)c3C)cc3c2CCC3)S(=O)(=O)c2cc(Cl)cnc2O1` [Example 4, (3S)-3-(7-{[(4R)-8-Chloro-4-ethyl-1,1-dioxido-3,4-dihydro-2H-pyrido[2,3-b][1,4,5]oxathiazepin-2-yl]methyl}-2,3-dihydro-1H-inden-5-yl)-3-(1,4-dimethyl-1H-benzotriazol-5-yl)propanoic acid], for which, in series [2], the maximam plasma concentration was determined as 0.029 µM.
With `CC[C@@H]1CN(Cc2cc([C@@H](CC(=O)O)c3cc(Cl)c4c(nnn4C)c3C)cc3c2CCC3)S(=O)(=O)c2cc(Cl)cnc2O1` [Example 97, (3R)-3-(7-Chloro-1,4-dimethyl-1H-benzotriazol-5-yl)-3-(7-{[(4R)-8-chloro-4-ethyl-1,1-dioxido-3,4-dihydro-2H-pyrido[2,3-b][1,4,5]oxathiazepin-2-yl]methyl}-2,3-dihydro-1H-inden-5-yl)propanoic acid], in series [1], the “activity ratio (NQO1 activity ratio)” value is “A (5<NQO1 activity ratio)”.
The same measure, in the same setting: the value for `CC[C@@H]1CN(Cc2cc([C@H](CC(=O)O)c3cc(Cl)c4c(nnn4C)c3C)cc3c2CCC3)S(=O)(=O)c2cc(Cl)cnc2O1` [Example 96, (3S)-3-(7-Chloro-1,4-dimethyl-1H-benzotriazol-5-yl)-3-(7-{[(4R)-8-chloro-4-ethyl-1,1-dioxido-3,4-dihydro-2H-pyrido[2,3-b][1,4,5]oxathiazepin-2-yl]methyl}-2,3-dihydro-1H-inden-5-yl)propanoic acid] was “A (5<NQO1 activity ratio)”.
`CC[C@@H]1CN(Cc2cc([C@H](CC(=O)O)c3ccc4c(nnn4C)c3C)cc3ccsc23)S(=O)(=O)c2cc(Cl)cnc2O1` [Example 7, (3S)-3-(7-{[(4R)-8-Chloro-4-ethyl-1,1-dioxido-3,4-dihydro-2H-pyrido[2,3-b][1,4,5]oxathiazepin-2-yl]methyl}-1-benzothiophen-5-yl)-3-(1,4-dimethyl-1H-benzotriazol-5-yl)propanoic acid] returned a maximam plasma concentration in series [2] of 0.009 µM.
